# Like-named read-outs stand apart in the source and are kept apart here.
# What was measured:
# PDE-1 = PDE-1 inhibition; format: biochemical
# PDE-3 = PDE-3 inhibition; format: biochemical
# [1] = Chronic Cytoxicity (mouse 3T3); format: cell-based; conditions: 3T3 cells
# PDE-6 bovine = target: T1, PDE-6 bovine (Bos taurus, UniProt P11541+P23439); assay: PDE-6 bovine inhibition; format: biochemical
# T1 sequence (P11541 2-856 limits assumed): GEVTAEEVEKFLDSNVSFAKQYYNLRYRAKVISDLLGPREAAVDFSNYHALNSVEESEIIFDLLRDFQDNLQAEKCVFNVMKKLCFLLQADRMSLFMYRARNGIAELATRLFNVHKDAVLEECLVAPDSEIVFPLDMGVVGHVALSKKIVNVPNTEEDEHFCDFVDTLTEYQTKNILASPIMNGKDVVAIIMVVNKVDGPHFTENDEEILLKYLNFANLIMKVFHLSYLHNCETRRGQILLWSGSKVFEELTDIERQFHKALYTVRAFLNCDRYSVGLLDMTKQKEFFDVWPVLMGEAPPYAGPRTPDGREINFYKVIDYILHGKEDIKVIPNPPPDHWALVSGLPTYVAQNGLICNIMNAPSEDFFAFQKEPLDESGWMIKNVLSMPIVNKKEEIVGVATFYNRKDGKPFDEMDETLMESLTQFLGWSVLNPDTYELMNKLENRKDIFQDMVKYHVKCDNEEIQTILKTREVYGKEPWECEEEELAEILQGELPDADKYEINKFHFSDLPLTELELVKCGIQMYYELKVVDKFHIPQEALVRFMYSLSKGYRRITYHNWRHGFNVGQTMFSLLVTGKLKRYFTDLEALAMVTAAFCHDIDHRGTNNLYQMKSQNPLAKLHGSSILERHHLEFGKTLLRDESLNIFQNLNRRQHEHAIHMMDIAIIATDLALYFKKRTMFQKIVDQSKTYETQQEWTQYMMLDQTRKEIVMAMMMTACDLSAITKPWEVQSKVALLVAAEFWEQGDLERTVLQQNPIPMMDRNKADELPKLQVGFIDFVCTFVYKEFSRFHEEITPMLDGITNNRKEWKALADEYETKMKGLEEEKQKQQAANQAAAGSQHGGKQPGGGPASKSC
# T1 sequence (P23439 2-850 limits assumed): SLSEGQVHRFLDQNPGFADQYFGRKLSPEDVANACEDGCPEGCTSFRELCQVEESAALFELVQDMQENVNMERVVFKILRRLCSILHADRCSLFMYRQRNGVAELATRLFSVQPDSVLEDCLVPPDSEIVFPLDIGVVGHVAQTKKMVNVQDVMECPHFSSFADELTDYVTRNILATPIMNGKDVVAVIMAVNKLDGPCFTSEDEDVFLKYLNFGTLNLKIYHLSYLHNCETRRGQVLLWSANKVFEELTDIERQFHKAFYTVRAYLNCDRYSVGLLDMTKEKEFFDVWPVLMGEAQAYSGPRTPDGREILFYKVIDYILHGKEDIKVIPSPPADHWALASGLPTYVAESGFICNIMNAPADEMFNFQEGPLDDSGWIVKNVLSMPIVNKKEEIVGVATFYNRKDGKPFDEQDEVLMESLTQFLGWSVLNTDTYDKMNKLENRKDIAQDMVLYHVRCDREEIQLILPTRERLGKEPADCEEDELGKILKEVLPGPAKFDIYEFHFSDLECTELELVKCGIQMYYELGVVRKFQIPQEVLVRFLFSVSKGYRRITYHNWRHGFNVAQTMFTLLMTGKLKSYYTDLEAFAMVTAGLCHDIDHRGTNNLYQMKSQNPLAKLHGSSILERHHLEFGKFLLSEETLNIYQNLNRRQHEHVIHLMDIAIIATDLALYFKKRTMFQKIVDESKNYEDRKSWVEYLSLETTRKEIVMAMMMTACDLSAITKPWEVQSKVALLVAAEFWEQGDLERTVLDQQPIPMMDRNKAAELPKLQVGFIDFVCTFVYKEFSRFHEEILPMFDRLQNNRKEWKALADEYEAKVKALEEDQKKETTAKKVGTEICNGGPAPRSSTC
# Caco-2 permeability = format: in vitro ADME; conditions: human; for Papp A→B: AtoB; for Papp B→A: BtoA
# Description: Several model systems are available, employing monolayers of various cell types, for evaluation of active transport of pharmaceutically active substances. For example, monolayers of Caco-2 intestinal epithelial cells can be used to evaluate active transport of substances between the intestine and the bloodstream. When plated on a surface which allows the flow of material from apical to basolateral and vice versa, such cells form a biological membrane which can be used to simulate physiological absorption and bioavailability. In another example, mouse brain capillary endothelial cell (MBEC) lines have been established to evaluate active transport in and out of the central nervous system. Another example of such cells is HT29 human colon carcinoma cells. Further, monolayers expressing particular transporter proteins can be established using transfected cells. For example, Sasaki et al (2002) J. Biol. Chem. 8:6497 used a double-transfected Madin-Darby canine kidney cell monolayer to study transport of organic anions.
# PDE5 = PDE5 (Homo sapiens, UniProt O76074); assay: PDE-5 human inhibition; format: biochemical
# PAMPA permeability = format: in vitro ADME
# Solubility = format: physicochemical
# Non-Spec Binding = format: in vitro ADME
# Protein Binding = format: in vitro ADME; conditions: human, human serum components
# Method: In general, protein binding is assessed by measuring the capacity of molecules of the invention to bind to one or more human serum components or mimics thereof. In one embodiment, suitable functional residues may be identified by screening of surfaces comprising such residues for their ability to resist adsorption of serum components, including, but not limited to serum proteins, and preferably human serum proteins. Candidate residues can be screened directly by attaching them to a solid support and testing the support for protein resistance. Alternatively, candidate residues are incorporated into, or linked to molecules of pharmaceutical interest. Such compounds may be synthesized on a solid support, or bound to a solid support after synthesis. In a non-limiting example of a direct binding assay, immobilized candidate functional residues or molecules incorporating such residues are tested for their ability to bind serum components. The serum components can be labeled with a signaling moiety for detection, or a labeled secondary reagent that binds to such serum components can be used.
# A direct binding analysis can also be preformed in liquid phase. For example, test compounds can be mixed with one or more serum components in liquid phase, and the unbound molecules determined.
# PDE-4 human = PDE-4 human inhibition; format: biochemical
# [2] = T1/2 in rat liver microsomes; format: in vitro ADME
# [3] = T1/2 in human liver microsomes; format: in vitro ADME
# [4] = pH 2.7, aqueous buffer, read-out: Solubility (ug/mL) pH 2.7
# [5] = pH 7.4, aqueous buffer, read-out: Solubility (ug/mL) pH 7.4
Structure (SMILES),IC50 (PDE-1),IC50 (PDE-3),GI50 [1],LC50 (50% lethal concentration) [1],IC50 (PDE-6 bovine),Papp A→B (Caco-2 permeability),Papp B→A (Caco-2 permeability),IC50 (PDE5),"Papp (PAMPA permeability; Hex, read-out: PAMPA Hex)","Papp (PAMPA permeability; Lec, read-out: PAMPA Lec)",solubility (Solubility; [4]),solubility (Solubility; [5]),Non-Spec Binding (%) (Non-Spec Binding),fraction unbound (Protein Binding),IC50 (PDE-4 human),half-life [2],half-life [3]
CCCc1nc(C)c2c(=O)[nH]c(-c3cc(S(=O)(=O)N(C)CCNC)ccc3OCC)nn12 [Compound 2],82 nM,1930 nM,> 75000 nM,> 75000 nM,16.3 nM,1.48 ×10⁻⁶ cm/s,9.88 ×10⁻⁶ cm/s,0.646 nM,1.17 ×10⁻⁶ cm/s,1.47 ×10⁻⁶ cm/s,> 50 µg/mL,> 50 µg/mL,–,–,–,–,–
CCCc1nc(C)c2c(=O)[nH]c(-c3cc(S(=O)(=O)N(C)C(C)(C)C)ccc3OCC)nn12 [Compound 3],11.9 nM,323 nM,> 50000 nM,> 100000 nM,3.74 nM,50.8 ×10⁻⁶ cm/s,50.4 ×10⁻⁶ cm/s,0.107 nM,53.9 ×10⁻⁶ cm/s,–,90.2 µg/mL,15 µg/mL,–,–,–,–,–
CCCc1nc(C)c2c(=O)[nH]c(-c3cc(S(=O)(=O)NCCO)ccc3OCC)nn12 [Compound 4],18.7 nM,2030 nM,~50000 nM,> 100000 nM,5.63 nM,–,–,1.08 nM,~0.0062 ×10⁻⁶ cm/s,0.0019 ×10⁻⁶ cm/s,–,–,–,–,–,–,–
CCCc1nc(C)c2c(=O)[nH]c(-c3cc(S(=O)(=O)N(CCO)CCO)ccc3OCC)nn12 [Compound 6],26 nM,1500 nM,–,–,17 nM,4.3 ×10⁻⁶ cm/s,28.1 ×10⁻⁶ cm/s,0.52 nM,~0.08 ×10⁻⁶ cm/s,–,–,–,–,–,–,–,–
CCCc1nc(C)c2c(=O)[nH]c(-c3cc(S(=O)(=O)N(C)C[C@H](COC)OC)ccc3OCC)nn12 [Compound 7],14.7 nM,784 nM,–,–,2.9 nM,48.6 ×10⁻⁶ cm/s,57.4 ×10⁻⁶ cm/s,0.356 nM,76.1 ×10⁻⁶ cm/s,–,–,–,25.5%,0.018,–,–,–
CCCc1nc(C)c2c(=O)[nH]c(-c3cc(S(=O)(=O)N(C)C)ccc3OCC)nn12 [Compound 8],31 nM,1200 nM,–,–,5 nM,45.4 ×10⁻⁶ cm/s,47.4 ×10⁻⁶ cm/s,1 nM,68.9 ×10⁻⁶ cm/s,–,–,–,44.2%,0.024,–,–,–
CCCc1nc(C)c2c(=O)[nH]c(-c3cc(S(=O)(=O)N(CCOCC)CCOCC)ccc3OCC)nn12 [Compound 10],12 nM,546 nM,–,–,2.6 nM,–,–,0.34 nM,49 ×10⁻⁶ cm/s,–,–,–,89.9%,0.012,–,–,–
CCCc1nc(C)c2c(=O)[nH]c(-c3cc(S(=O)(=O)N4CCC[C@H]4CN4CCCC4)ccc3OCC)nn12.Cl [Compound 11],48 nM,2100 nM,25000 nM,> 100000 nM,23 nM,6.87 ×10⁻⁶ cm/s,30.5 ×10⁻⁶ cm/s,1 nM,3.86 ×10⁻⁶ cm/s,–,> 50 µg/mL,> 50 µg/mL,–,–,–,–,–
CCCc1nc(C)c2c(=O)[nH]c(-c3cc(S(=O)(=O)N(C)CC(=O)O)ccc3OCC)nn12 [Compound 12],24 nM,1300 nM,–,–,0.48 nM,2.2 ×10⁻⁶ cm/s,5.5 ×10⁻⁶ cm/s,0.1 nM,–,–,–,–,0.8%,0.025,5000 nM,–,–
CCCc1nc(C)c2c(=O)[nH]c(-c3cc(S(=O)(=O)NCCCN4CCCC4=O)ccc3OCC)nn12 [Compound 13],3.5 nM,777 nM,–,–,0.645 nM,10.6 ×10⁻⁶ cm/s,36.7 ×10⁻⁶ cm/s,0.051 nM,–,–,–,–,5.95%,0.0885,373 nM,16.6 min,12.7 min
CCCc1nc(C)c2c(=O)[nH]c(-c3cc(S(=O)(=O)N(C)CC(=O)N(C)OC)ccc3OCC)nn12 [Compound 14],12 nM,648 nM,–,–,2.9 nM,20.6 ×10⁻⁶ cm/s,48.8 ×10⁻⁶ cm/s,0.104 nM,–,–,–,–,9.9%,0.024,1550 nM,–,–
CCCc1nc(C)c2c(=O)[nH]c(-c3cc(S(=O)(=O)N4CCN(CC(=O)N(C)C)CC4)ccc3OCC)nn12 [Compound 16],17 nM,941 nM,–,–,0.365 nM,2.65 ×10⁻⁶ cm/s,45.4 ×10⁻⁶ cm/s,0.04 nM,–,–,–,–,9.72%,0.11,963 nM,59.9 min,> 60 min
CCCc1nc(C)c2c(=O)[nH]c(-c3cc(S(=O)(=O)N(C)CCN4CCCC4=O)ccc3OCC)nn12 [Compound 20],11.5 nM,1170 nM,–,–,0.63 nM,–,–,0.135 nM,–,–,93.3 µg/mL,90.9 µg/mL,7.4%,0.037,944 nM,–,–
CCCc1nc(C)c2c(=O)[nH]c(-c3cc(S(=O)(=O)N4CCN(CC(=O)N5CCOCC5)CC4)ccc3OCC)nn12 [Compound 22],18.5 nM,511 nM,–,–,0.92 nM,–,–,0.05 nM,–,–,–,–,0.8%,0.116,2950 nM,–,–
CCCNS(=O)(=O)c1ccc(OCC)c(-c2nn3c(CCC)nc(C)c3c(=O)[nH]2)c1 [Compound 23],15 nM,3700 nM,–,–,0.62 nM,–,–,0.19 nM,–,–,–,–,–,–,2300 nM,–,–

# — patent US8853394B2, “Pharmacokinetically improved compounds” (Surface Logix, Inc., priority 2006, dated 2014)
